Measured values published in US9321728B2, “Beta-alanine derivatives, pharmaceutically acceptable salts thereof, and pharmaceutical composition comprising same as active ingredient” (KOREA RESEARCH INSTITUTE OF CHEMICAL TECHNOLOGY, priority 2012, dated 2016).

Target: human DGAT1 (Homo sapiens (Human), UniProt O75907)
Assay: Human DGAT1 enzyme inhibition test (phospholipid FlashPlate, [14C]decanoyl-CoA)
Assay type: biochemical
Settings: for IC50: lysate of Hep3B cells over-expressing human DGAT1 (5 μg/well), didecanoyl glycerol and [14C]decanoyl-CoA substrates; for in vitro inhibition activity with respect to DGAT1: verbal summary of Table 1
Description: The cells were treated with 200 μg/ml G-418(Sigma) once every three days for 4 weeks to over-express the human DGAT1, thereby obtaining a stabilized cell line. The over-expressed cells were put into a homogenization buffer [250 mM sucrose, 10 mM Tris-HCl (pH 7.4), 1 mM EDTA] and lysed by a homogenization apparatus. Then, centrifugation was performed with 600×g for 15 minutes to remove cell residue, and the obtained cells were used for an enzyme inhibition test. Human DGAT-1 and mouse DGAT activity was determined as follows: Assay buffer [20 mM HEPES (pH 7.4), 100 mM MgCl2, 0.04% BSA] containing 500 μM of enzyme substrate (didecanoyl glycerol) and 7.5 μM radiolabeled acyl-CoA substrate ([^14C]decanoyl-CoA) was added to each well of a phospholipid FlashPlate (PerkinElmer Life Sciences). A small aliquot of lysate (5 μg/well) or mouse liver microsome (0.1 mg/well) was added to start the reaction, which was allowed to proceed in a 20° C. bath for 1 hour. and maintained overnight at room temperature. Next day, measurement was performed by Wallac 1450 Microbeta Trilux Liquid Scintillation Counter and Luminometer (PerkinElmer Life Science). […] A calculation method of inhibition degree (%) is as follows.

Chain of human DGAT1 (O75907 whole entry): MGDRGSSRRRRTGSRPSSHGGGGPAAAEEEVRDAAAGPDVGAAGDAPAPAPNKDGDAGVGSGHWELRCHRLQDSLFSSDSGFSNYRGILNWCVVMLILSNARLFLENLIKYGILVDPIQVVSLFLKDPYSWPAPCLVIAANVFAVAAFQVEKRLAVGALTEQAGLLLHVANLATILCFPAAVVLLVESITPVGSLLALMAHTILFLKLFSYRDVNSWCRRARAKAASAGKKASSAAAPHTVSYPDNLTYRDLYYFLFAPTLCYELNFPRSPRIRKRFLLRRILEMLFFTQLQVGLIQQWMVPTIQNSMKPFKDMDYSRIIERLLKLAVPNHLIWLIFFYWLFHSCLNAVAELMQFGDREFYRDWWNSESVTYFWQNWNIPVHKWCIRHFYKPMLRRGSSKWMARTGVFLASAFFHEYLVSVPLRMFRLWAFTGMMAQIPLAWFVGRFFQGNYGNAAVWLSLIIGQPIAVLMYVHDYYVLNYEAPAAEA

IC50 [nM] | in vitro inhibition activity with respect to DGAT1 | SMILES
< 50 | good to excellent | CCOc1ccc(C(=O)NCCC(=O)Nc2ccc([C@H]3CC[C@H](CC(=O)O)CC3)cc2)cc1 [Compound 4, trans-(4-{4-[3-(4-ethoxybenzoylamino)propionylamino]phenyl}cyclohexyl)acetic acid]
< 50 | good to excellent | O=C(O)C[C@H]1CC[C@H](c2ccc(NC(=O)CCNC(=O)c3nc(-c4ccccc4)oc3C(F)(F)F)cc2)CC1 [Compound 6, trans-[4-(4-{3-[(2-Phenyl-5-trifluoromethyloxazole-4-carbonyl)amino]propionylamino}phenyl)cyclohexyl]acetic acid]
< 100 |  | O=C(O)C[C@H]1CC[C@H](c2ccc(NC(=O)CCNC(=O)c3cn(-c4ccccc4)nc3C(F)(F)F)cc2)CC1 [Compound 7, trans-[4-(4-{3-[(1-phenyl-3-trifluoromethyl-1H-pyrazole-4-carbonyl)amino]propionylamino}phenyl)cyclohexyl]acetic acid]
< 50 | good to excellent | O=C(O)C[C@H]1CC[C@H](c2ccc(NC(=O)CCNC(=O)c3nc(-c4ccccc4Cl)oc3C(F)(F)F)cc2)CC1 [Compound 11, trans-{4-[4-(3-{[2-(2-chlorophenyl)-5-trifluoromethyloxazole-4-carbonyl]amino}propionylamino)phenyl]cyclohexyl}acetic acid]
< 100 |  | O=C(O)C[C@H]1CC[C@H](c2ccc(NC(=O)CCNC(=O)c3oc(-c4ccccc4)nc3C(F)(F)F)cc2)CC1 [Compound 15, trans-[4-(4-{3-[(2-phenyl-4-trifluoromethyloxazole-5-carbonyl)amino]propionylamino}phenyl)cyclohexyl]acetic acid]
< 100 |  | Cc1ccc(-c2nc(C(=O)NCCC(=O)Nc3ccc([C@H]4CC[C@H](CC(=O)O)CC4)cc3)c(C(F)(F)F)o2)cc1 [Compound 19, trans-[4-(4-{3-[(2-p-tolyl-5-trifluoromethyloxazole-4-carbonyl)amino]propionylamino}phenyl)cyclohexyl]acetic acid]
< 100 |  | Cc1ccccc1-c1nc(C(=O)NCCC(=O)Nc2ccc([C@H]3CC[C@H](CC(=O)O)CC3)cc2)c(C(F)(F)F)o1 [Compound 21, trans-[4-(4-{3-[(2-o-tolyl-5-trifluoromethyloxazole-4-carbonyl)amino]propionylamino}phenyl)cyclohexyl]acetic acid]
< 500 |  | O=C(O)C[C@H]1CC[C@H](c2ccc(NC(=O)CCNC(=O)c3nc(-c4ccccc4)oc3C(F)(F)F)cc2)CC1 [Compound 22, sodium; trans-[4-(4-{3-[(2-phenyl-5-trifluoromethyloxazole-4-carbonyl)amino]propionylamino}phenyl)cyclohexyl]acetate]
< 100 |  | O=C(O)C[C@H]1CC[C@H](c2ccc(NC(=O)CCNC(=O)c3nc(-c4ccc(Br)cc4)oc3C(F)(F)F)cc2)CC1 [Compound 27, trans-{4-[4-(3-{[2-(4-bromophenyl)-5-trifluoromethyloxazole-4-carbonyl]amino}propionylamino)phenyl]cyclohexyl}acetic acid]
< 100 |  | Cc1oc(-c2ccccc2)nc1C(=O)NCCC(=O)Nc1ccc([C@H]2CC[C@H](CC(=O)O)CC2)cc1 [Compound 31, trans-[4-(4-{3-[(5-methyl-2-phenyloxazole-4-carbonyl)amino]propionylamino}phenyl)cyclohexyl]acetic acid]
< 500 |  | Cc1nc(-c2ccccc2)sc1C(=O)NCCC(=O)Nc1ccc([C@H]2CC[C@H](CC(=O)O)CC2)cc1 [Compound 33, trans-[4-(4-{3-[(4-methyl-2-phenylthiazole-5-carbonyl)amino]propionylamino}phenyl)cyclohexyl]acetic acid]
< 100 |  | O=C(O)C[C@H]1CC[C@H](c2ccc(NC(=O)CCNC(=O)c3sc(-c4ccccc4)nc3C(F)(F)F)cc2)CC1 [Compound 37, trans-[4-(4-{3-[(2-phenyl-4-trifluoromethylthiazole-5-carbonyl)amino]propionylamino}phenyl)cyclohexyl]acetic acid]
< 50 | good to excellent | NC(=O)C[C@H]1CC[C@H](c2ccc(NC(=O)CCNC(=O)c3nc(-c4ccccc4)oc3C(F)(F)F)cc2)CC1 [Compound 41, trans-2-phenyl-5-trifluoromethyloxazole-4-carboxylic acid{2-[4-(4-carbamoylmethylcyclohexyl)phenylcarbamoyl]ethyl}amide]
< 100 |  | Cc1ccc(-n2cc(C(=O)NCCC(=O)Nc3ccc([C@H]4CC[C@H](CC(=O)O)CC4)cc3)c(C(F)(F)F)n2)cc1 [Compound 47, trans-[4-(4-{3-[(1-p-tolyl-3-trifluoromethyl-1H-pyrazole-4-carbonyl)amino]propionylamino}phenyl)cyclohexyl]acetic acid]
< 100 |  | O=C(O)C[C@H]1CC[C@H](c2ccc(NC(=O)CCNC(=O)c3cn(-c4ccc(Cl)cc4)nc3C(F)(F)F)cc2)CC1 [Compound 49, trans-{4-[4-(3-{[1-(4-chlorophenyl)-3-trifluoromethyl-1H-pyrazole-4-carbonyl]amino}propionylamino)phenyl]cyclohexyl}acetic acid]
< 100 |  | O=C(O)C[C@H]1CC[C@H](c2ccc(NC(=O)CCNC(=O)c3cn(-c4ccccc4Cl)nc3C(F)(F)F)cc2)CC1 [Compound 51, trans-{4-[4-(3-{[1-(2-Chlorophenyl)-3-trifluoromethyl-1H-pyrazole-4-carbonyl]amino}propionylamino)phenyl]cyclohexyl}acetic acid]
< 500 |  | O=C(O)C[C@H]1CC[C@H](c2ccc(NC(=O)CCNC(=O)c3nc(-c4ccc(F)cc4)oc3C(F)(F)F)cc2)CC1 [Compound 56, trans-{4-[4-(3-{[2-(4-fluorophenyl)-5-trifluoromethyloxazole-4-carbonyl]amino}propionylamino)phenyl]cyclohexyl}acetic acid]
< 500 |  | O=C(O)C[C@H]1CC[C@H](c2ccc(NC(=O)CCNC(=O)c3ccc(OCC4CC4)cc3)cc2)CC1 [Compound 58, trans-(4-{4-[3-(4-cyclopropylmethoxybenzoylamino)propionylamino]phenyl}cyclohexyl)acetic acid]
< 50 | good to excellent | O=C(O)C[C@H]1CC[C@H](c2ccc(NC(=O)CCNC(=O)c3nc(-c4ccccc4F)oc3C(F)(F)F)cc2)CC1 [Compound 60, trans-{4-[4-(3-{[2-(2-Fluorophenyl)-5-trifluoromethyloxazole-4-carbonyl]amino}propionylamino)phenyl]cyclohexyl}acetic acid]
< 50 | good to excellent | O=C(O)C[C@H]1CC[C@H](c2ccc(NC(=O)CCNC(=O)c3nc(-c4ccc(Cl)cc4Cl)oc3C(F)(F)F)cc2)CC1 [Compound 64, trans-{4-[4-(3-{[2-(2,4-dichlorophenyl)-5-trifluoromethyloxazole-4-carbonyl]amino}propionylamino)phenyl]cyclohexyl}acetic acid]
< 50 | good to excellent | O=C(O)C[C@H]1CC[C@H](c2ccc(NC(=O)CCNC(=O)c3nc(-c4ccccc4Br)oc3C(F)(F)F)cc2)CC1 [Compound 65, trans-{4-[4-(3-{[2-(2-Bromophenyl)-5-trifluoromethyloxazole-4-carbonyl]amino}propionylamino)phenyl]cyclohexyl}acetic acid]
< 50 | good to excellent | O=C(O)C[C@H]1CC[C@H](c2ccc(NC(=O)CCNC(=O)c3nc(-c4ccccc4C(F)(F)F)oc3C(F)(F)F)cc2)CC1 [Compound 66, trans-{4-[4-(3-{[5-trifluoromethyl-2-(2-trifluoromethylphenyl)oxazole-4-carbonyl]amino}propionylamino)phenyl]cyclohexyl}acetic acid]
< 50 | good to excellent | O=C(O)C[C@H]1CC[C@H](c2ccc(NC(=O)CCNC(=O)c3nc(-c4c(Cl)cccc4Cl)oc3C(F)(F)F)cc2)CC1 [Compound 68, trans-{4-[4-(3-{[2-(2,6-dichlorophenyl)-5-trifluoromethyloxazole-4-carbonyl]amino}propionylamino)phenyl]cyclohexyl}acetic acid]
< 50 |  | O=C(O)C[C@H]1CC[C@H](c2ccc(NC(=O)CCNC(=O)c3nc(-c4c(Cl)cccc4Cl)oc3C(F)(F)F)cc2)CC1 [Compound 69, sodium; trans-{4-[4-(3-{[2-(2,6-dichlorophenyl)-5-trifluoromethyloxazole-4-carbonyl]amino}propionylamino)phenyl]cyclohexyl}acetate]
< 100 |  | O=C(O)C[C@H]1CC[C@H](c2ccc(NC(=O)CCNC(=O)c3nc(-c4c(F)cccc4Cl)oc3C(F)(F)F)cc2)CC1 [Compound 73, trans-{4-[4-(3-{[2-(2-chloro-6-fluorophenyl)-5-trifluoromethyloxazole-4-carbonyl]amino}propionylamino)phenyl]cyclohexyl}acetic acid]
< 100 |  | Cc1cccc(C)c1-c1ccc(C(=O)NCCC(=O)Nc2ccc([C@H]3CC[C@H](CC(=O)O)CC3)cc2)cc1 [Compound 75, trans-[4-(4-(3-(2′,6′-dimethylbiphenyl-4-carbonylamino)propionylamino)phenyl)cyclohexyl]acetic acid]
